# Laboratory results taken from PubChem BioAssay (NCI).
#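 A five-concentration, 48-hour dose response in 96-well plates underlies each endpoint, interpolated linearly between surrounding concentrations. Here, GI50 denotes the concentration required for 50% inhibition of growth. Definition used: TGI = concentration required for complete inhibition of growth.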
# Test system: 786-0 renal
# Test: NCI anticancer screen, dose series, 48 h
Structure (SMILES),TGI,GI50
COC(=O)C(=Cc1cc(OC)c(OC)c(OC)c1-c1cc2c(cc1C1(C)OCCS1)OCO2)C(=O)OC (stereo unspecified),> 100 µM,
C#CC1/C(=C\C(=O)OC)CCCC1O (stereo unspecified),> 100 µM,
CC12CCC(=O)C[C@H]1CCC(OC=O)C2Br (stereo partly specified),> 100 µM,
COc1ccc(-c2nnc3n(C)c(=O)c4ccccc4n23)cc1N,> 100 µM,3720 nM
COc1cnc2c(c1)C(=O)c1c-2n(CCCNC2=NCCS2)c(=O)c2cc([N+](=O)[O-])ccc12,0.0925 µM,23.5 nM
COc1ccc(OCC(=O)O)c2c1CCCC2=O,> 100 µM,
Cc1nc(Nc2ccc(Cl)cc2)sc1C(=O)NNC(=S)NN,30.2 µM,
COc1ccc2c(c1OCC(=O)O)C(=O)C(CCC(=O)O)CC2 (stereo unspecified),> 100 µM,
Cc1ccc2nc(/C(=C/c3ccc(/C=C(\NC(=O)c4ccccc4)c4nc5ccc(C)cc5[nH]4)c(C)c3)NC(=O)c3ccccc3)[nH]c2c1,60.4 µM,
COC1C(OC(=S)Nc2ccccc2)c2ccccc2N1C(C)=O (stereo unspecified),> 100 µM,
Cc1nc(Nc2cccnc2)sc1C(=O)/C=C/c1ccc(F)cc1,19.4 µM,2940 nM
O=C(Nc1cccc(Cl)c1)C(=O)C(C(=O)c1ccc2ccccc2c1)C1OC(=O)c2ccccc21 (stereo unspecified),22.9 µM,
CC1=Cc2cccc(C)c2C(=O)C1=O,6.96 µM,
Cc1ccc(C)c(NC(=O)c2cccc([N+](=O)[O-])c2O)c1,> 100 µM,
COCC(OC)C(CC=C(C#N)C#N)OC (stereo unspecified),> 100 µM,
On1c(-c2ccccc2)c(-c2ccccc2N2CCCC2)c2ccccc21,> 100 µM,
N#CC(C(=O)/C(=N\NC(N)=O)C(C#N)c1ccc(Cl)cc1)c1ccc(Cl)cc1 (stereo unspecified),> 100 µM,

Structure (SMILES),TGI,GI50
CC(C)(C)c1cc(C(P(=O)(O)O)P(=O)(O)O)cc(C(C)(C)C)c1O,> 100 µM,
CC(C)C1=Cc2ccc3c(c2C(=O)C1=O)CCCC3(C)C,10.5 µM,
CSc1nc(SC)c2c(C#N)[nH]nc2n1,> 100 µM,
COc1c(O)c2c(=O)cc3c4c5c(cc(=O)c6c(O)c(OC)c(CC(C)O)c(c(c1CC(C)O)c24)c65)OCO3 (stereo unspecified),11.1 µM,
COc1ccc(CCN(C)C2CCC(C#N)(c3ccc(OC)c(OC)c3)CC2)cc1OC (stereo unspecified),> 100 µM,
CCOC(=O)c1nc2c(OC)nn(O)cc-2c1[N+](=O)[O-],30.7 µM,
C/C(CC(=O)Nc1ccc(C)c(C)c1)=N\N(c1ccccc1)c1ccccc1,> 100 µM,
COC(=O)/C(=N\NC(N)=S)C(C(=O)OC)C(=O)C(=O)Nc1ccc(C)cc1 (stereo unspecified),> 100 µM,
O=C(OC1CCC(=C2SCCCS2)[C@H]1C1SCCCS1)c1ccccc1 (stereo partly specified),> 100 µM,
O=C1CCC2(c3ccc(Cl)cc3)Nc3cc(Cl)ccc3N12 (stereo unspecified),21.8 µM,
O=C(/C(=C/c1ccc(Cl)cc1)c1ccccc1)c1ccccc1,56.4 µM,
CC1(C)COC(c2cccc3c2C(=O)c2cccc(Cl)c2-3)=N1,> 100 µM,
CN(C)CCC(/C=C/c1ccccc1)=N\Nc1ccccc1,11.1 µM,
CCOC(=O)c1ccc(/C(C)=N/NC(N)=S)cc1,> 100 µM,
c1ccc2c(OCCSCCCCCCCCCCSCCOc3cccc4ccccc34)cccc2c1,> 100 µM,
Cc1cc2c(=O)c3ccccc3[nH]c2c(C(N)=O)c1C,> 100 µM,
CN1CCC(=O)/C(=C/c2ccccc2)C1,25.2 µM,

# Test system: HCT-15 colon
# Test: NCI anticancer screen, dose series, 48 h
Structure (SMILES),TGI,GI50
COC(=O)C(=Cc1cc(OC)c(OC)c(OC)c1-c1cc2c(cc1C1(C)OCCS1)OCO2)C(=O)OC (stereo unspecified),> 100 µM,
C#CC1/C(=C\C(=O)OC)CCCC1O (stereo unspecified),> 100 µM,
CC12CCC(=O)C[C@H]1CCC(OC=O)C2Br (stereo partly specified),> 100 µM,
COc1ccc(-c2nnc3n(C)c(=O)c4ccccc4n23)cc1N,> 100 µM,49.8 nM
COc1cnc2c(c1)C(=O)c1c-2n(CCCNC2=NCCS2)c(=O)c2cc([N+](=O)[O-])ccc12,2.66 µM,1170 nM
COc1ccc(OCC(=O)O)c2c1CCCC2=O,> 100 µM,
Cc1nc(Nc2ccc(Cl)cc2)sc1C(=O)NNC(=S)NN,45.5 µM,
COc1ccc2c(c1OCC(=O)O)C(=O)C(CCC(=O)O)CC2 (stereo unspecified),> 100 µM,
Cc1ccc2nc(/C(=C/c3ccc(/C=C(\NC(=O)c4ccccc4)c4nc5ccc(C)cc5[nH]4)c(C)c3)NC(=O)c3ccccc3)[nH]c2c1,> 100 µM,
COC1C(OC(=S)Nc2ccccc2)c2ccccc2N1C(C)=O (stereo unspecified),> 100 µM,
Cc1nc(Nc2cccnc2)sc1C(=O)/C=C/c1ccc(F)cc1,10.2 µM,2140 nM
CC1=Cc2cccc(C)c2C(=O)C1=O,16.4 µM,
Cc1ccc(C)c(NC(=O)c2cccc([N+](=O)[O-])c2O)c1,> 100 µM,
COCC(OC)C(CC=C(C#N)C#N)OC (stereo unspecified),> 100 µM,
On1c(-c2ccccc2)c(-c2ccccc2N2CCCC2)c2ccccc21,> 100 µM,
N#CC(C(=O)/C(=N\NC(N)=O)C(C#N)c1ccc(Cl)cc1)c1ccc(Cl)cc1 (stereo unspecified),> 100 µM,
CC(C)(C)c1cc(C(P(=O)(O)O)P(=O)(O)O)cc(C(C)(C)C)c1O,> 100 µM,

Structure (SMILES),TGI,GI50
CC(C)C1=Cc2ccc3c(c2C(=O)C1=O)CCCC3(C)C,4.42 µM,
CSc1nc(SC)c2c(C#N)[nH]nc2n1,> 100 µM,
COc1c(O)c2c(=O)cc3c4c5c(cc(=O)c6c(O)c(OC)c(CC(C)O)c(c(c1CC(C)O)c24)c65)OCO3 (stereo unspecified),4.13 µM,
COc1ccc(CCN(C)C2CCC(C#N)(c3ccc(OC)c(OC)c3)CC2)cc1OC (stereo unspecified),> 100 µM,
CCOC(=O)c1nc2c(OC)nn(O)cc-2c1[N+](=O)[O-],36.2 µM,
C/C(CC(=O)Nc1ccc(C)c(C)c1)=N\N(c1ccccc1)c1ccccc1,> 100 µM,
COC(=O)/C(=N\NC(N)=S)C(C(=O)OC)C(=O)C(=O)Nc1ccc(C)cc1 (stereo unspecified),> 100 µM,
O=C(OC1CCC(=C2SCCCS2)[C@H]1C1SCCCS1)c1ccccc1 (stereo partly specified),> 100 µM,
O=C1CCC2(c3ccc(Cl)cc3)Nc3cc(Cl)ccc3N12 (stereo unspecified),25.3 µM,
O=C(/C(=C/c1ccc(Cl)cc1)c1ccccc1)c1ccccc1,30.6 µM,
CC1(C)COC(c2cccc3c2C(=O)c2cccc(Cl)c2-3)=N1,> 100 µM,
CN(C)CCC(/C=C/c1ccccc1)=N\Nc1ccccc1,2.43 µM,
CCOC(=O)c1ccc(/C(C)=N/NC(N)=S)cc1,> 100 µM,
c1ccc2c(OCCSCCCCCCCCCCSCCOc3cccc4ccccc34)cccc2c1,> 100 µM,
Cc1cc2c(=O)c3ccccc3[nH]c2c(C(N)=O)c1C,> 100 µM,
CN1CCC(=O)/C(=C/c2ccccc2)C1,> 50 µM,

# Test system: HL-60(TB) leukemia
# Test: NCI anticancer screen, dose series, 48 h
row,Structure (SMILES),TGI
1,COC(=O)C(=Cc1cc(OC)c(OC)c(OC)c1-c1cc2c(cc1C1(C)OCCS1)OCO2)C(=O)OC (stereo unspecified),> 100 µM
2,C#CC1/C(=C\C(=O)OC)CCCC1O (stereo unspecified),> 100 µM
3,CC12CCC(=O)C[C@H]1CCC(OC=O)C2Br (stereo partly specified),> 100 µM
